Measured values: patent US10131652B2, “Pyrimidinyloxy benzene derivatives as herbicides” (E. I. DU PONT DE NEMOURS AND COMPANY, priority 2014, dated 2018)
Read-outs that look alike come from different tables or passages of the source.

Columns and labels:
Type in all cases: in vivo
[1] = system: barnyardgrass (Echinochloa crus-galli); assay: Test B pre-/postemergence plant response; settings: for pest or weed control at 500 g/ha: 500 g ai/ha
Outline: (§1)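 Steps: plant seeds in loam soil–sand mix; spray soil preemergence, and in parallel spray 2–10 cm one- to two-leaf plants postemergence; hold ~10 days in greenhouse; visually rate injury against untreated controls (0 = no effect, 100 = complete control).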

[2] = system: corn (Zea mays); assay: Test B pre-/postemergence plant response; settings: Zea mays, post-emergence, 240 h
Outline: as §1

[3] = system: giant foxtail (Setaria faberii); assay: Test B pre-/postemergence plant response; settings: for pest or weed control at 500 g/ha: 500 g ai/ha
Outline: as §1

[4] = system: pigweed (Amaranthus retroflexus); assay: Test B pre-/postemergence plant response; settings: for pest or weed control at 500 g/ha: 500 g ai/ha
Outline: as §1

[5] = system: wheat (Triticum aestivum); assay: Test B pre-/postemergence plant response; settings: Triticum aestivum, post-emergence, 240 h, read-out: Plant response rating, Wheat
Outline: as §1

[6] = system: Italian ryegrass (Lolium multiflorum); assay: Test D pre-/postemergence plant response; settings: Lolium multiflorum, pre-emergence, Preemergence
Outline: (§2)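 Visual rating, 0–100 scale (0 = no effect, 100 = complete control), versus untreated controls 13 to 15 days after treatment in greenhouse. Preemergence: seeds in loam/sand soil. Postemergence: 2 to 18 cm plants, 1- to 4-leaf stage, peat-based medium. Compounds formulated in non-phytotoxic solvent plus surfactant.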

[7] = system: corn (Zea mays); assay: Test D pre-/postemergence plant response; settings: Zea mays, pre-emergence, Preemergence
Outline: as §2

[8] = system: galium (catchweed bedstraw, Galium aparine); assay: Test D pre-/postemergence plant response; settings: Galium, pre-emergence, Preemergence
Outline: as §2

[9] = system: lambsquarters (Chenopodium album); assay: Test D pre-/postemergence plant response; settings: Chenopodium album, pre-emergence, Preemergence
Outline: as §2

[10] = system: large (Lg) crabgrass (Digitaria sanguinalis); assay: Test D pre-/postemergence plant response; settings: Digitaria sanguinalis, pre-emergence, Preemergence
Outline: as §2

[11] = system: morningglory (Ipomoea coccinea); assay: Test D pre-/postemergence plant response; settings: Ipomoea, pre-emergence, Preemergence
Outline: as §2

[12] = system: ragweed (common ragweed, Ambrosia elatior); assay: Test D pre-/postemergence plant response; settings: Ambrosia artemisiifolia, pre-emergence, Preemergence
Outline: as §2

[13] = system: soybean (Glycine max); assay: Test D pre-/postemergence plant response; settings: Glycine max, pre-emergence, Preemergence
Outline: as §2

[14] = system: waterhemp (common waterhemp, Amaranthus rudis); assay: Test D pre-/postemergence plant response; settings: Amaranthus tuberculatus, pre-emergence, Preemergence
Outline: as §2

[15] = system: winter wheat (Triticum aestivum); assay: Test D pre-/postemergence plant response; settings: Triticum aestivum, pre-emergence, Preemergence
Outline: as §2

[16] = system: yellow nutsedge (Cyperus esculentus); assay: Test D pre-/postemergence plant response; settings: Cyperus, pre-emergence, Preemergence
Outline: as §2

[17] = Preemergence, 125 g ai/ha, 0 to 100 scale (0 no effect, 100 complete control)
[18] = 125 g ai/ha, postemergence, 0 to 100 scale, 0 no effect, 100 complete control
[19] = Postemergence, 500 g ai/ha, 0 to 100 scale (0 no effect, 100 complete control)

N#Cc1cccc(Oc2ncc(Cl)cn2)c1-c1cc(C(F)(F)F)ccn1 [Compound 158, 5-chloro-2-[3-cyano-2-[4-(trifluoromethyl)-2-pyridinyl]phenoxy]pyrimidine]
pest or weed control at 125 g/ha ([1]; Echinochloa crus-galli, post-emergence, 240 h, 125 g ai/ha, postemergence, 0 to 100 scale, 0 no effect, 100 complete control, read-out: Plant response rating, Barnyardgrass): 60%
pest or weed control at 500 g/ha ([1]; Echinochloa crus-galli, post-emergence, 240 h, Postemergence, 0 to 100 scale (0 no effect, 100 complete control), read-out: Plant response rating, Barnyardgrass): 100%
pest or weed control at 500 g/ha ([1]; Echinochloa crus-galli, pre-emergence, 240 h, Preemergence, 0 to 100 scale where 0 is no effect and 100 is complete control, read-out: Plant response rating, Barnyardgrass): 100%
Barnyardgrass plant response rating [1, 17]: 90
Corn plant response rating (crop injury, 0 = no effect, 100 = complete kill) at 125 g/ha [2, 18]: 30%
Corn plant response rating (crop injury, 0 = no effect, 100 = complete kill) at 500 g/ha [2, 19]: 90%
Foxtail, Giant plant response rating [3, 17]: 90
pest or weed control at 125 g/ha ([3]; Setaria faberi, post-emergence, 240 h, 125 g ai/ha, postemergence, 0 to 100 scale, 0 no effect, 100 complete control, read-out: Plant response rating, Foxtail, Giant): 50%
pest or weed control at 500 g/ha ([3]; Setaria faberi, post-emergence, 240 h, Postemergence, 0 to 100 scale (0 no effect, 100 complete control), read-out: Plant response rating, Foxtail, Giant): 100%
pest or weed control at 500 g/ha ([3]; Setaria faberi, pre-emergence, 240 h, Preemergence, 0 to 100 scale where 0 is no effect and 100 is complete control, read-out: Plant response rating, Foxtail, Giant): 100%
pest or weed control at 125 g/ha ([4]; Amaranthus retroflexus, post-emergence, 240 h, 125 g ai/ha, postemergence, 0 to 100 scale, 0 no effect, 100 complete control, read-out: Plant response rating, Pigweed): 80%
pest or weed control at 500 g/ha ([4]; Amaranthus retroflexus, post-emergence, 240 h, Postemergence, 0 to 100 scale (0 no effect, 100 complete control), read-out: Plant response rating, Pigweed): 100%
pest or weed control at 500 g/ha ([4]; Amaranthus retroflexus, pre-emergence, 240 h, Preemergence, 0 to 100 scale where 0 is no effect and 100 is complete control, read-out: Plant response rating, Pigweed): 100%
Pigweed plant response rating [4, 17]: 90
plant injury at 125 g/ha [5, 18]: 20%
plant injury at 500 g/ha [5, 19]: 70%
pest or weed control at 125 g/ha ([6]; 125 g ai/ha, read-out: Plant response rating (scale 0 to 100), Ryegrass, Italian): 20%
pest or weed control at 16 g/ha ([6]; 16 g ai/ha, scale 0 to 100 (0 no effect, 100 complete control), read-out: Plant response rating, Ryegrass, Italian): 0%
pest or weed control at 31 g/ha ([6]; 31 g ai/ha, scale 0 to 100 (0 no effect, 100 complete control), read-out: Plant response rating, Ryegrass, Italian): 0%
pest or weed control at 62 g/ha ([6]; 62 g ai/ha, scale 0 to 100 (0 no effect, 100 complete control), read-out: Plant response rating, Ryegrass, Italian): 0%
plant injury at 125 g/ha ([7]; 125 g ai/ha, read-out: Plant response rating (scale 0 to 100), Corn): 15%
Corn plant response rating (crop injury, 0 = no effect, 100 = complete kill) at 16 g/ha ([7]; 16 g ai/ha, scale 0 to 100 (0 no effect, 100 complete control)): 0%
Corn plant response rating (crop injury, 0 = no effect, 100 = complete kill) at 31 g/ha ([7]; 31 g ai/ha, scale 0 to 100 (0 no effect, 100 complete control)): 0%
Corn plant response rating (crop injury, 0 = no effect, 100 = complete kill) at 62 g/ha ([7]; 62 g ai/ha, scale 0 to 100 (0 no effect, 100 complete control)): 5%
pest or weed control at 125 g/ha ([8]; 125 g ai/ha, read-out: Plant response rating (scale 0 to 100), Galium): 100%
pest or weed control at 16 g/ha ([8]; 16 g ai/ha, scale 0 to 100 (0 no effect, 100 complete control), read-out: Plant response rating, Galium): 0%
pest or weed control at 31 g/ha ([8]; 31 g ai/ha, scale 0 to 100 (0 no effect, 100 complete control), read-out: Plant response rating, Galium): 50%
pest or weed control at 62 g/ha ([8]; 62 g ai/ha, scale 0 to 100 (0 no effect, 100 complete control), read-out: Plant response rating, Galium): 100%
pest or weed control at 125 g/ha ([9]; 125 g ai/ha, read-out: Plant response rating (scale 0 to 100), Lambsquarters): 80%
pest or weed control at 16 g/ha ([9]; 16 g ai/ha, scale 0 to 100 (0 no effect, 100 complete control), read-out: Plant response rating, Lambsquarters): 75%
pest or weed control at 31 g/ha ([9]; 31 g ai/ha, scale 0 to 100 (0 no effect, 100 complete control), read-out: Plant response rating, Lambsquarters): 100%
pest or weed control at 62 g/ha ([9]; 62 g ai/ha, scale 0 to 100 (0 no effect, 100 complete control), read-out: Plant response rating, Lambsquarters): 100%
pest or weed control at 125 g/ha ([10]; 125 g ai/ha, read-out: Plant response rating (scale 0 to 100), Crabgrass, Large): 100%
pest or weed control at 16 g/ha ([10]; 16 g ai/ha, scale 0 to 100 (0 no effect, 100 complete control), read-out: Plant response rating, Crabgrass, Large): 25%
pest or weed control at 31 g/ha ([10]; 31 g ai/ha, scale 0 to 100 (0 no effect, 100 complete control), read-out: Plant response rating, Crabgrass, Large): 90%
pest or weed control at 62 g/ha ([10]; 62 g ai/ha, scale 0 to 100 (0 no effect, 100 complete control), read-out: Plant response rating, Crabgrass, Large): 85%
pest or weed control at 125 g/ha ([11]; 125 g ai/ha, read-out: Plant response rating (scale 0 to 100), Morningglory): 70%
pest or weed control at 16 g/ha ([11]; 16 g ai/ha, scale 0 to 100 (0 no effect, 100 complete control), read-out: Plant response rating, Morningglory): 5%
pest or weed control at 31 g/ha ([11]; 31 g ai/ha, scale 0 to 100 (0 no effect, 100 complete control), read-out: Plant response rating, Morningglory): 15%
pest or weed control at 62 g/ha ([11]; 62 g ai/ha, scale 0 to 100 (0 no effect, 100 complete control), read-out: Plant response rating, Morningglory): 15%
pest or weed control at 125 g/ha ([12]; 125 g ai/ha, read-out: Plant response rating (scale 0 to 100), Ragweed): 50%
pest or weed control at 16 g/ha ([12]; 16 g ai/ha, scale 0 to 100 (0 no effect, 100 complete control), read-out: Plant response rating, Ragweed): 80%
pest or weed control at 31 g/ha ([12]; 31 g ai/ha, scale 0 to 100 (0 no effect, 100 complete control), read-out: Plant response rating, Ragweed): 60%
pest or weed control at 62 g/ha ([12]; 62 g ai/ha, scale 0 to 100 (0 no effect, 100 complete control), read-out: Plant response rating, Ragweed): 70%
plant injury at 125 g/ha ([13]; 125 g ai/ha, read-out: Plant response rating (scale 0 to 100), Soybean): 95%
plant injury at 16 g/ha ([13]; 16 g ai/ha, scale 0 to 100 (0 no effect, 100 complete control), read-out: Plant response rating, Soybean): 0%
plant injury at 31 g/ha ([13]; 31 g ai/ha, scale 0 to 100 (0 no effect, 100 complete control), read-out: Plant response rating, Soybean): 25%
plant injury at 62 g/ha ([13]; 62 g ai/ha, scale 0 to 100 (0 no effect, 100 complete control), read-out: Plant response rating, Soybean): 45%
pest or weed control at 125 g/ha ([14]; 125 g ai/ha, read-out: Plant response rating (scale 0 to 100), Waterhemp): 100%
pest or weed control at 16 g/ha ([14]; 16 g ai/ha, scale 0 to 100 (0 no effect, 100 complete control), read-out: Plant response rating, Waterhemp): 100%
pest or weed control at 31 g/ha ([14]; 31 g ai/ha, scale 0 to 100 (0 no effect, 100 complete control), read-out: Plant response rating, Waterhemp): 100%
pest or weed control at 62 g/ha ([14]; 62 g ai/ha, scale 0 to 100 (0 no effect, 100 complete control), read-out: Plant response rating, Waterhemp): 100%
plant injury at 125 g/ha ([15]; 125 g ai/ha, read-out: Plant response rating (scale 0 to 100), Wheat): 0%
plant injury at 16 g/ha ([15]; 16 g ai/ha, scale 0 to 100 (0 no effect, 100 complete control), read-out: Plant response rating, Wheat): 0%
plant injury at 31 g/ha ([15]; 31 g ai/ha, scale 0 to 100 (0 no effect, 100 complete control), read-out: Plant response rating, Wheat): 0%
plant injury at 62 g/ha ([15]; 62 g ai/ha, scale 0 to 100 (0 no effect, 100 complete control), read-out: Plant response rating, Wheat): 0%
pest or weed control at 125 g/ha ([16]; 125 g ai/ha, read-out: Plant response rating (scale 0 to 100), Nutsedge, Yellow): 5%
pest or weed control at 16 g/ha ([16]; 16 g ai/ha, scale 0 to 100 (0 no effect, 100 complete control), read-out: Plant response rating, Nutsedge, Yellow): 0%
pest or weed control at 31 g/ha ([16]; 31 g ai/ha, scale 0 to 100 (0 no effect, 100 complete control), read-out: Plant response rating, Nutsedge, Yellow): 0%
pest or weed control at 62 g/ha ([16]; 62 g ai/ha, scale 0 to 100 (0 no effect, 100 complete control), read-out: Plant response rating, Nutsedge, Yellow): 5%
